Each block holds one compound with its values, some of them ahead of it.
Key:
hepatoblasts = assay: Step-down removal of factors from the HB organoid expansion medium; format: cell-based, human; conditions: for Ki67 expression level after removing the factor: flow cytometry, compared with complete medium group
From the text: Based on the related-signaling pathways affecting the regeneration/proliferation/expansion of hepatoblasts in vivo and in vitro, the development of the medium formula for HB organoid expansion was to initially select small molecules or cytokines corresponding to the pathways to mimic the process of hepatic progenitor regeneration, and finally the combination of small molecules with cytokines had been established. Through comprehensive investigation on a large amount of literature, it had been shown that Wnt, TGFβ, cAMP, Activin, EGF and HGF pathways were related to the regeneration of hepatoblasts. […] Afterwards, the step-down method through removing factors one by one from the combination had been used to verify which small molecule/cytokine was essential for the long-term culture of hepatoblasts. […] Finally, flow cytometry had been used to detect the expression levels of cell proliferation marker Ki67. […] Therefore, finally the expansion medium of HB organoid was determined as the fifth medium in Example 1: IMDM medium supplemented with 10 % w/w FBS, 1% w/w ITS, 1% w/w NEAA, 1% w/w GlutaMAX, 10 mM Nicotinamide, 5 μM CHIR99021, 10 µM SB431542, 10 μM FSK, 20 ng/mL FGF-4, 20 ng/mL BMP4, 20 ng/mL EGF and 5% Matrigel.

[1] = system: polarized hepatocyte organoids; assay: Cholestasis detection by CDFDA staining; format: cell-based, human; conditions: drug at its IC25 value for 48 hours
Procedure: In addition, CDFDA staining was used to test the appearance of the cholestasis in polarized hepatocyte organoids which are treated by these drugs at IC25 values of each drug for 48 hours, and then the occurrence of the cholestasis after drug treatment was evaluated by whether fluorescent CDFDA product is transported into bile canaliculi through apical protein.

[2] = system: polarized hepatocyte organoids; assay: Drug toxicology analysis (cell viability, IC50) in polarized hepatocyte organoids; format: cell-based, human; conditions: 48 hours after drug treatment, cell viability detection kit
Procedure: Polarized hepatocyte organoids (could be used in drug screening models 6 days after the maturation) after the maturation from the differentiation were collected, and distributed into ultra-low attachment 96-well culture plates using the pipette, about 10-20 organoids were seeded in each well, then different drugs could be employed for toxicology analysis. In this Example, toxicology analysis was performed on 8 kinds of drugs (Mannitol, Troglitazone, Chlorpromazine, Diclofenac, Cyclosporine A, Nefazodone, Tolcapone, Bosentan) to detect the ability of polarized hepatocyte organoids to predict the toxicity of each drug during drug screening/toxicology analysis. During the toxicology analysis, at least 7 different concentrations were selected for each drug, and wells in triplicate were performed for each concentration. Forty-eight hours after drug treatment, cell viabilities are detected using cell viability detection kit and IC50 curves were drawn. Finally, IC50 value of each drug for each cell type was calculated. In addition to polarized hepatocyte organoids, non-polarized hepatocyte spheroids and HepG2 cells (hepatoma cell lines, commonly used for hepatocyte drug screening) spheroids were also simultaneously used for drug toxicology analysis.

hepatocyte organoids = assay: Hepatocyte lipid accumulation model induced with oleic acid; format: cell-based, human
Procedure: After mature hepatocyte organoids were differentiated from long-term cultured HB organoids (the lipid accumulation model could be developed 6 days after the differentiation), oleic acid (OA) was used with the concentrations at 200 and 800 μM to induce the lipid accumulation model. […] Next spermidine (SPD), a drug that alleviates lipid accumulation in hepatocytes, was used to conduct the rescue. SPD was added into the medium at 200 μM at the same time during the treatment with OA. […] The above results lay the foundation for the subsequent applications of polarized hepatocyte organoids in the development of drugs related to hepatocyte lipid accumulation and the treatment of lipid accumulation.

[3] = system: phase I metabolizing enzymes
[4] = factor removed from complete medium

Compound: Cc1c[nH]c(-c2cnc(NCCNc3ccc(C#N)cn3)nc2-c2ccc(Cl)cc2Cl)n1 [CHIR99021]
efficiency of cloning formation after removing the factor (hepatoblasts; [4]): significantly reduced
morphological changes of cell spheroids after removing the factor (hepatoblasts; [4]): unable to form hollow organoid-like structures

occurrence of the cholestasis [1]: do not induce the cholestasis
Compound: O=C(O)Cc1ccccc1Nc1c(Cl)cccc1Cl [Dicofenac, Diclofenac]

occurrence of the cholestasis [1]: do not induce the cholestasis
Compound: OC[C@@H](O)[C@@H](O)[C@H](O)[C@H](O)CO [Mannitol]
toxicity to hepatocytes [2]: no toxic

Compound: CCCCCCCC/C=C\CCCCCCCC(=O)O [OA, oleic acid]
levels of intracellular ROS (hepatocyte organoids; OA 200 and 800 μM, flow cytometry): increased
levels of intracellular triglyceride (hepatocyte organoids; OA 200 and 800 μM, kit): increase
content of lipid droplets (hepatocyte organoids; OA 200 and 800 μM, two days, oil red staining): gradually increased
expression levels of lipid accumulation related genes FASN and PLIN2 (hepatocyte organoids; after OA modeling, qPCR): significantly increased

Compound: NC(=O)c1ccc(-c2nc(-c3ccc4c(c3)OCO4)c(-c3ccccn3)[nH]2)cc1 [SB431542]
efficiency of cloning formation after removing the factor (hepatoblasts; [4]): significantly reduced

Compound: NCCCCNCCCN [SPD, spermidine]
relative number of lipid droplets (hepatocyte organoids; SPD 200 μM added with OA, two days): significantly reduced
expression levels of genes related to lipid accumulation (hepatocyte organoids; SPD 200 μM added with OA, two days, qPCR): decreased

occurrence of the cholestasis [1]: do not induce the cholestasis
Compound: Cc1ccc(C(=O)c2cc(O)c(O)c([N+](=O)[O-])c2)cc1 [Tolcapone]

Compound: C[C@@H](N)[C@H]1CC[C@H](C(=O)Nc2ccncc2)CC1 [Y27632, Y-27632]
effect of Rock inhibitor during the expansion of HB organoids (hepatoblasts; added at cell inoculation): only maintains cell viability at day 0
Ki67 expression level after removing the factor (hepatoblasts): higher expression peak

drug metabolism levels (metabolic function of CYP3A4, CYP2C9 and CYP1A2) [3]: higher
Compound: COc1ccc2[nH]c([S+]([O-])Cc3ncc(C)c(OC)c3C)nc2c1 (centres unmarked) [omeprazole]

Compound: hepatocyte growth factor [HGF]
Ki67 expression level after removing the factor (hepatoblasts): higher expression peak

— US20250295701A1, “Kit for Induction of Continuous Expansion of Hepatoblast Organoids and/or Hepatocyte Organoids Under 3D Suspension Conditions and Use Thereof” (South China University of Technology, priority 2022, published 2025)
